Measured values reported in US7696245B2, “Fluorescent probe for zinc” (Sekisui Medical Co., Ltd., priority 2003, dated 2010).
pKd: −log10 of the molar value.

Key:
[1] = Rate constant of complex formation with zinc ions (stopped-flow); format: physicochemical; conditions: 1 μM compound, 50 μM zinc ions, 100 mM HEPES buffer (pH 7.4), 25° C.
Experimental: The rate constant of the formation of a complex between zinc ions and each of Compounds 8, 13, 17, and 22 were investigated. Changes with time of fluorescence intensity were measured in a stopped-flow manner after the compound was mixed in 100 mM HEPES buffer (pH 7.4) at 25° C. to adjust the final concentration of the compound to 1 μM and that of zinc ions to 50 μM. The rate constant of complex formation was calculated by using the graph to give 1.6×10^6 M^−1s^−1 for Compound 8, 1.4×10^6 M^−1s^−1 for Compound 13, 7.8×10^4 M^−1s^−1 for Compound 17, and 1.3×10^6 M^−1s^−1 for Compound 22. […] Therefore, it is understood that zinc ions can be detected in a very short period of time, and rapid changes in the concentration of zinc ions can also be detected by using these compounds.

CHO cells = assay: Fluorescence intensity when zinc ions were intracellularly introduced into CHO cells; format: cell-based
Experimental: Changes in fluorescence intensity were investigated when zinc ions in various concentrations were intracellularly introduced by using CHO cells. […] After the cells were washed with PBS(−) 3 times, the reagent was added as shown in the following Table 1, and changes in fluorescence intensity were measured.

[2] = read-out: Kd value for zinc ions; cited from earlier work

SMILES	rate constant of complex formation [1]	also measured
O=C(O)c1ccc(NCCNCc2ccccn2)cc1-c1c2ccc(=O)cc-2oc2cc(O)ccc12 [Compound 8]	1.6e+06 M⁻¹ s⁻¹	
O=C(O)c1ccc(NCCN(CCc2ccccn2)Cc2ccccn2)cc1-c1c2ccc(=O)cc-2oc2cc(O)ccc12 [Compound 13]	1.4e+06 M⁻¹ s⁻¹	
O=C(O)c1ccc(NCCN(CCc2ccccn2)CCc2ccccn2)cc1-c1c2ccc(=O)cc-2oc2cc(O)ccc12 [Compound 17]	78000 M⁻¹ s⁻¹	
Cc1cccc(CN(CCNc2ccc(C(=O)O)c(-c3c4ccc(=O)cc-4oc4cc(O)ccc34)c2)Cc2ccccn2)n1 [Compound 22]	1.3e+06 M⁻¹ s⁻¹	
CC(=O)Oc1ccc2c(c1)Oc1cc(OC(C)=O)ccc1C21OC(=O)c2ccc(NCCN(CCc3ccccn3)Cc3ccccn3)cc21 [Compound 28]		change of fluorescence intensity of dyed cells with elevation of zinc ions introduced (CHO cells; CHO cells, 100 μM pyrithione, 0.3-300 μM ZnSO4): increased stepwise
CC(=O)Oc1ccc2c(c1)Oc1cc(OC(C)=O)ccc1C21OC(=O)c2ccc(NCCN(Cc3ccccn3)Cc3ccccn3)cc21 [ZnAF-2DA, reference compound]		pKd [2]: 8.57; zinc ion concentration at which fluorescence intensity reached the plateau (CHO cells; CHO cells dyed with 10 μM probe, 100 μM pyrithione plus ZnSO4): 3 µM
